The source of these data is patent US20100113366A1, “USE OF PROLINE-RICH PEPTIDE DERIVED FROM HYPOTHALAMUS FOR THE MANUFACTURE OF A MEDICAMENT FOR THE TREATMENT AND/OR PROPHYLAXIS OF CATTLE LEUCOSIS” (priority 2005, published 2010).

Where no end group is shown, it is not given here.

The series concerns cows with leucosis. Description: hematological and cytomorphological blood indices of cows with leucosis after PRP-1 administration in vivo. Particulars: 48 h after 1st and 2nd administration; microscopic analysis. The protocol:
The cows with leucosis were administered with the PRP-1 solution in concentration 1.57×10^−4 g in 1 ml in a dose of 4×10^−3 ml/kg live weight of animal twice in 48 h.
The blood samples were taken from the jugular vain of animal into the test tubes with anti-coagulant Trilon-B before administration, in 48 h after 1st and 2nd administrations, as well as in 33 days after the 2nd administration. The blood hematomorphological and cytomorphological studies were carried out according to the available methods of veterinary hematology.

With “AGAPEPAEPAQPGVY [PRP-1, Ala-Gly-Ala-Pro-Glu-Pro-Ala-Glu-Pro-Ala-Gln-Pro-Gly-Val-Tyr]”, the “morphological changes of small lymphocytes with high resistance, neutrophils, eosinophils and monocytes in blood smears” value was “no any morphological changes”.
